Results: US20070202047A1, “Polyamine-substituted ligands for use as contrast agents” (priority 2006, published 2007)
Entries after “also recorded” stand apart in the source; their conditions may differ.

Columns and labels:
[1] = system: B16 melanoma cells; assay: Intracellular uptake of gadolinium complexes (ICP-MS); type: cell-based, mouse; conditions: for factor of higher cellular uptake in B16 melanoma vs. the hepatoma cells: 24-h incubation (FIG. 2A)
Method: (§1) Cell culture. B16 melanoma cells (mouse) and MH3924A Morris hepatoma cells (rat) were obtained from the German Cancer Research Center (DKFZ) tumor bank and grown at 37° C. as stock cultures in RPMI 1640 supplemented with 10% fetal calf serum and 1% glutamine as standard medium under a 5% CO2 atmosphere (all components: Pan Biotech GmbH, Aidenbach, Germany). For contrast agent uptake studies 10^6 cells were inoculated into 25 cm^2 culture flasks (BD Biosciences, Bedford, USA) and grown for 24 h in 10 mL of the standard culture medium. Cells were then incubated for an additional 24 h (1 h for temperature dependence studies) with fresh medium containing 0, 1, 2.5, 5 or 10 μM of the selected gadolinium complex (three replicate flasks for each incubation). Afterwards the medium was removed, cells were trypsinated, washed twice, resuspended in culture medium and counted (typical yields: 3.5-6 million cells). For comparison 2.5×10^5 human melanocytes (Promo Cell, Heidelberg, Germany) were incubated for 24 h with melanocyte growth medium (Promo Cell, Heidelberg, Germany) containing 0, 1, 2.5, 5 or 10 μM of the selected gadolinium complex (two replicate flasks for each incubation). The work up procedure was as described above typically yielding 2.5×10^5 cells. Cultured human hepatocytes (Cytonet GmbH, Weinheim, Germany) embedded in a collagen matrix in a 12 well microtiter plate, with 6×10^5 viable cells per well were incubated for 24 h in hepatocyte growth medium (Cytonet GmbH, Weinheim, Germany) containing the same concentration series of selected gadolinium complexes. Afterwards the medium was removed, cells were separated using collagenase (Roche Diagnostics, Mannheim, Germany). After digestion the cells were washed twice with PBS, resuspended in culture medium and counted (typical yields: 6×10^5 cells per tube). The intracellular gadolinium content was determined by ICP-MS as described below.
(§2) ICP-MS. Samples containing the above mentioned number of harvested cells were digested with 50% concentrated HNO3 (Superselect; Merck, Darmstadt, Germany) under microwave heating with a Mars 5 apparatus (CEM GmbH, Kamp-Lintfort, Germany). To each sample 100 μL of an aqueous solution of rhodium chloride (1 μg/mL) were added so that Rh-103 could be used as an internal quantification standard. Gd-160 measurements were performed with the ICP-MS instrument mentioned above. The gadolinium concentrations were determined using standard curves created prior to cell analyses. For each uptake incubation condition triplicate cell samples were analyzed, and Gd content for each sample was recorded as the mean of two MS determinations.
(§3) Intracellular Uptake of Gadolinium Complexes. B16 melanoma and MH3924A hepatoma cells as well as human melanocytes and hepatocytes were incubated for 24 h in the presence of the gadolinium complexes shown in FIG. 1, using concentrations in the range of 1-10 μM. Incubations with the unsubstituted [Gd(DTPA)(H2O)]^2−complex (Magnevist®) served as controls. Following cell harvest and hydrolysis, inductively coupled plasma mass spectrometry (ICP-MS) with direct detection of gadolinium was used to quantitate complex uptake (triplicate cultures for each incubation).
(§4) Cell Uptake Studies. A493 (human kidney), B16 melanoma cells (mouse), HeLa (human cervix), MCF-7 (human breats), MH3924A (Morris hepatoma) cells (rat) and 3T3 NIH (mouse fibroblasts) were obtained from the DKFZ tumor cell collection. 3×10^6 cells of each cell type were grown for 24 hours in culture flasks. Afterwards they were incubated for 1 hour in 10 mL culture media containing 0, 10, 50 and 100 μM of Gd-2.2. Gd-3.2 or Gd-4.2. Afterwards the medium was removed, the cells were trypsinated, washed twice, resuspended in culture medium and counted. The gadolinium uptake was determined in triplicate. […] cells were incubated with 0, 1, 2.5, 5 and 10 μM of the Gd-1.2. and Gd-5.2. for 24 h. […]

[2] = system: MH3924A Morris hepatoma cells; assay: as above; type: cell-based, rat
Method: as §1, §2, §3, §4

[3] = Complex stability; type: physicochemical; conditions: method of Sherry et al.
Method: Complex stability. The stability constants were determined using a method of Sherry et al. (39).

[4] = Biodistribution and excretion in tumor-bearing ACI rats; type: in vivo, rat
Method: (§5) Animal models. For in vivo tumor studies 2×10^6 MH3924A tumor cells were injected subcutaneously into the right thigh of male ACI rats (Charles River, Sulzfeld, Germany) weighing 220 to 260 g. All animal experiments were performed in compliance with the German Animal Protection Laws (Permission 35-9185.81/G-7-03, Reg.-Praesidium, Karlsruhe, Germany).
Biodistribution and excretion data. At 14 days after tumor inoculation, when tumors had reached a diameter of ca. 5-6 mm, the biodistribution experiments were initiated. Each animal (210-250 g) was given an intravenous tail-vein injection of […] Magnevist® (Schering, Berlin, Germany) or […] of Gd-5.1. or Gd-6.1. 1 h and 24 hs post-injection (p.i.), the animals were weighed, sacrificed by cervical dislocation and dissected. Organs or tissues were blotted dry and weighed. Samples containing 100-500 mg of the tumor or organs were digested with concentrated HNO3 (Superselect; Merck, Darmstadt, Germany) and H2O2 under microwave heating with a Mars 5 apparatus (CEM GmbH, Kamp-Lintfort, Germany). To each sample 100 μL of an aqueous solution of rhodium chloride (1 μg/mL) were added so that Rh-103 could be used as an internal quantification standard. Gd-160 measurements were performed with the ICP-MS instrument mentioned above. The gadolinium concentrations were determined using standard curves created prior to tissue analyses. The results were expressed as % ID/g tissue. Urine and faeces were gathered in order to measure the excreted amount of Gd(III).

[5] = system: subcutaneous MH3924A tumor; assay: MRI of ACI rats bearing a subcutaneous MH3924A tumor; type: in vivo, rat; conditions: 24 h post Gd, 0.1 mmol/kg i.v., 2.35 T
Method: as §5
MRI. At 25 days after inoculation, when tumors had reached a diameter of ca. 10-15 mm, the MR imaging experiments were initiated. ACI rats were anesthetized by intravenous injection of ketamin (Ketanest®, 0.1 mg/g body wt.; Parke-Davis, Berlin, Germany). Then a dose of 0.1 mmol/kg Magnevist® or Gadovist® (Schering, Berlin, Germany) or one of the synthesized agents Gd-3.1., Gd-5.1. or Gd-6.1. was injected intravenously into a lateral tail vein. For one experiment a higher dose (0.36 mmol/kg) of Magnevist® was used. Individual rats were examined by MRI at 1 h and 24 h post Gd, in the case of Magnevist® also at ca. 15 min post Gd. Proton imaging studies were performed at 2.35 T (100.3 MHz) with a Biospec 24/40 instrument (Bruker BioSpin MRI, Ettlingen, Germany). […] Two transaxial multislice imaging protocols were applied with a field of view of 70×70 mm, 128 time-domain data points, 96 phase-encoding steps, and 16 slices of 2 mm thickness. A multi-spin-echo sequence was used for proton-density and T2-weighted images (repetition time TR=2 s, 12 echoes with echo times TE of 8, 16, 24, . . . 96 ms, number of averages=1), and a spoiled gradient-echo sequence was used for T1-weighted imaging (TR=212 ms, TE=5 ms, flip angle=60°, number of averages=3). The data were Fourier transformed to give a 128×128 image matrix with 0.55 mm pixel resolution. Analogous T1-weighted images with coronal slices were acquired with a field of view of 80×80 mm and 3-mm slice thickness.
Imaging viewing, ROI analysis and export of TIFF files was performed with the freeware MRIcro from Chris Rorden (http://people.cas.sc.edu/rorden/mricro.html).

[6] = system: MH3924A cells; assay: Polyamine transport inhibition (binding inhibition assay with benzyl viologen); type: cell-based, rat; conditions: 25 fold molar excess of benzyl viologen over 1 μM Gd-5.1 or Gd-6.1, MH3924A
Method: Polyamine transport inhibition. 10^6 MH3924A cells were inoculated into 25 cm^2 culture flasks (BD Biosciences, Bedford, USA) and grown for 24 h in 10 mL of the standard culture medium. Cells were then incubated for an additional 24 h with fresh medium containing 1 μM of Gd-5.1. or Gd-6.1. and 0, 1, 10, 25, 50 or 100 μM of the polyamine uptake inhibitor benzyl viologen (34, 35). Afterwards the medium was removed, cells were trypsinated, washed twice, resuspended in culture medium and counted (typical yields: 3.5-6 million cells). The gadolinium content of the cells was determined by ICP-MS as described below.
as §2

[7] = 1 h post i.v. injection, one ACI rat, scaled to Gd dose of 100 μmol/kg

CCN(CC)CCNC(=O)c1ccc(NC(=O)CN(CCN(CCN(CC(=O)[O-])CC(=O)Nc2ccc(C(=O)NCCN(CC)CC)cc2)CC(=O)[O-])CC(=O)[O-])cc1.[Gd+3] [Gd-1.1]
factor of higher cellular uptake in B16 melanoma vs. the hepatoma cells [1]: ~2.2 | intracellular uptake of gadolinium complex ([2]; MH3924A cells, 24-h incubation, 10 μM): ca. 0.062 fmol/cell

CCN(CC)CCNC(=O)c1ccc(NC(=O)CN2CCN(CC(=O)[O-])CCN(CC(=O)[O-])CCN(CC(=O)[O-])CC2)cc1.[Gd+3] [Gd-1.2]
relative uptake (in words) ([2]; B16 and MH3924A, 24 h incubation, 1-10 μM): sufficient for MRI imaging purposes but was the lowest of all tested complexes

CCN(CC)CCNC(=O)CN(CCN(CCN(CC(=O)[O-])CC(=O)NCCN(CC)CC)CC(=O)[O-])CC(=O)[O-].[Gd+3] [Gd-2.1]
factor of higher cellular uptake in B16 melanoma vs. the hepatoma cells [1]: ~1.72

CCCCCCCCCNC(=O)CN(CCN(CCN(CC(=O)[O-])CC(=O)NCCN(CC)CC)CC(=O)[O-])CC(=O)[O-].[Gd+3] [Gd-4.1]
intracellular uptake (neglectable, near the detection limit) ([1]; 24-h incubation, cell line and concentration not stated): 0.0036 fmol/cell

NCCCNCCCCN(CCCN)C(=O)CN1CCN(CC(=O)[O-])CCN(CC(=O)[O-])CCN(CC(=O)[O-])CC1.[Gd+3] [Gd-4.2]
relative uptake (in words) ([2]; MH3924A and B16 melanoma cells, 1 h incubation, 100 μM): comparable with the uptake of Gd-2.2., but somewhat lower; also recorded: lower than uptake of Gd-3.2. and Gd-2.2., but still sufficient for MRI imaging

NCCCCN(CCCNCCCN)C(=O)CN(CCN(CCN(CC(=O)[O-])CC(=O)N(CCCCN)CCCNCCCN)CC(=O)[O-])CC(=O)[O-].[Gd+3] [Gd-5.2]
intracellular uptake of gadolinium complex ([1]; B16 melanoma cells, 24 h incubation, 1-10 μM (concentration not given)): 0.03 fmol/cell | complex stability constant [3]: 4.22×10^15 | intracellular uptake of gadolinium complex ([2]; MH3924A, 24 h incubation, 1-10 μM (concentration not given)): 0.3 fmol/cell

CNC[C@H](O)[C@@H](O)[C@H](O)[C@H](O)CO.CNC[C@H](O)[C@@H](O)[C@H](O)[C@H](O)CO.O=C([O-])CN(CCN(CC(=O)[O-])CC(=O)O)CCN(CC(=O)[O-])CC(=O)O.[Gd+3] [Magnevist, gadopentetate dimeglumine, reference compound]
intracellular uptake (below ICP-MS detection limit) ([1]; B16 melanoma cells, 24-h incubation, 1-10 μM): < 0.00002 fmol/cell | intracellular uptake (below ICP-MS detection limit) ([1]; B16 melanoma cells, 24-h incubation, 1-10 μM, listed as [Gd(DTPA)(H2O)]^2−): < 0.0002 fmol/cell | Gd concentration, Blood [4, 7]: 4.8 nmol/g | Gd concentration, Bone (femur) [4, 7]: 0.8 nmol/g | Gd concentration, Bone Marrow (femur) [4, 7]: 1.5 nmol/g | Gd concentration, Brain [4, 7]: 0.4 nmol/g | Gd concentration, Kidney (+urine) [4, 7]: 40.7 nmol/g | Gd concentration, Liver [4, 7]: 3.0 nmol/g | Gd concentration, Lung [4, 7]: 4.1 nmol/g | Gd concentration, Muscle (femur) [4, 7]: 1.3 nmol/g | Gd concentration, Small Intestine [4, 7]: 1.8 nmol/g | Gd concentration, Spleen [4, 7]: 1.5 nmol/g | Gd concentration, Tumor (MH3924A) [4, 7]: 3.1 nmol/g | Gd concentration, Urine (cumulative) [4, 7]: 25805.3 nmol/g | gadolinium found in the urine ([4]; one hour post injection, ACI rat): 88% | contrast ratio tumor vs. muscle tissue, T1 weighting [5]: no contrast with T1 weighting was achieved | intracellular uptake (below ICP-MS detection limit) ([2]; MH3924A cells, 24-h incubation, 1-10 μM, listed as [Gd(DTPA)(H2O)]^2−): < 0.0002 fmol/cell

O.O=C([O-])CN1CCN(CC(=O)[O-])CCN(CC(=O)[O-])CCN(CC(=O)[O-])CC1.[Gd+3] [[Gd(DOTA)(H2O)]^−, reference compound]
intracellular uptake (below ICP-MS detection limit) ([1]; B16 melanoma cells, control incubation of Example 2): < 0.0002 fmol/cell | intracellular uptake (below ICP-MS detection limit) ([2]; MH3924A cells, control incubation of Example 2): < 0.0002 fmol/cell

c1ccc(C[n+]2ccc(-c3cc[n+](Cc4ccccc4)cc3)cc2)cc1 [benzyl viologen]
inhibition of Gd complex uptake [6]: up to 90%
